IC50 data for 27 molecules are collected here from patent US20250313556A1, “CERTAIN CHEMICAL ENTITIES, COMPOSITIONS, AND METHODS” (MRJA THERAPEUTICS, INC., priority 2022, published 2025).

For this experiment, the target named is c-KIT (Homo sapiens, UniProt P10721). The experiment in a line: c-KIT ADP-Glo biochemical assay. As to the method: The inhibitory activity against c-KIT was measured using ADP-Glo assay. The percent (%) inhibition at each concentration of compound is calculated based on and relative to the luminescence signal in the Max and Min control wells contained within each assay plate. The Max control wells contain enzyme and substrate as 0% inhibition, and the Min control wells only contain substrate without enzyme as 100% inhibition. The concentrations and % inhibition values for tested compounds are plotted and the concentration of compound required for 50% inhibition (IC50) is determined with a four-parameter logistic dose response equation. The ability of the compounds in Table 1 to inhibit c-KIT was determined.
Chain of c-KIT (P10721 26-976): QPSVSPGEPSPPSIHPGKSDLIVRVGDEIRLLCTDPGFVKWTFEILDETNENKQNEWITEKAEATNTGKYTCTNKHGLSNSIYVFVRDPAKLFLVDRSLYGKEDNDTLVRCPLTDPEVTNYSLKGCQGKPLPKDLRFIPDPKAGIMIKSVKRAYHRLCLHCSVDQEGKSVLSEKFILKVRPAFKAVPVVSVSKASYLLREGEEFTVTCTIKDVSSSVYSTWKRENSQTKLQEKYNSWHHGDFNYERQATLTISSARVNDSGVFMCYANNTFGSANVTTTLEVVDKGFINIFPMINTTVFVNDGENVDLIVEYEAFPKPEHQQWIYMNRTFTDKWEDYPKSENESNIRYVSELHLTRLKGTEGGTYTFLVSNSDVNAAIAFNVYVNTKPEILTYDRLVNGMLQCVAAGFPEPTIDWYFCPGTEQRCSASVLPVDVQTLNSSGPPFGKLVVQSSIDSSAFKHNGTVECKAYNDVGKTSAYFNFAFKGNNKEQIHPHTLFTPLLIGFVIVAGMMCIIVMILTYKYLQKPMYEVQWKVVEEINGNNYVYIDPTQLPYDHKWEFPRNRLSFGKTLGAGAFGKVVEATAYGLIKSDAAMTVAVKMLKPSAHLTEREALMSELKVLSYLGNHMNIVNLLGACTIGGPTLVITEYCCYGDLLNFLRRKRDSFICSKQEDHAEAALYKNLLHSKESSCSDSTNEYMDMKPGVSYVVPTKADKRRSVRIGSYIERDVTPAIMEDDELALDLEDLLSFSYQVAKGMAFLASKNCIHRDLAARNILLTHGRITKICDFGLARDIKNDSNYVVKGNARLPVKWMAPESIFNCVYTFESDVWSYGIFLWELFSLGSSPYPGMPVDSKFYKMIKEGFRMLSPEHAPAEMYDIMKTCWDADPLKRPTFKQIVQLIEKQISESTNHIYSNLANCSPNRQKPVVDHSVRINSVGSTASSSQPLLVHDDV

The term IC50 denotes the concentration that gives 50% inhibition. A lower IC50 goes with inhibition by little substance.

For the setting “class ranges”, `Cc1c(F)cc(-c2noc([C@H]3C[C@@H]3F)n2)cc1NC(=O)c1cnc2ccc(N3CCOCC3)cn12` (racemic) [Compound C008, N-(3-fluoro-5-(5-((1R,2S)-2-fluorocyclopropyl)-1,2,4-oxadiazol-3-yl)-2-methylphenyl)-6-morpholinoimidazo[1,2-a]pyridine-3-carboxamide] showed a half-inhibitory concentration (IC50) of 1 to 20 µM.
On the same count and under the same terms, the value for `COC(=O)N1CC[C@@H](c2nc(-c3cc(F)c(C)c(NC(=O)c4cnc5ccccn45)c3F)no2)C1` [Compound C053, methyl (R)-3-(3-(2,5-difluoro-3-(imidazo[1,2-a]pyridine-3-carboxamido)-4-methylphenyl)-1,2,4-oxadiazol-5-yl)pyrrolidine-1-carboxylate] was 1 to 20 µM.
Same read-out and setting: then `Cc1c(F)cc(-c2noc([C@H]3C[C@@H]3F)n2)cc1NC(=O)c1cnc2cc(N3CCOCC3)ccn12` [Compound C014, N-(3-fluoro-5-(5-((1R,2S)-2-fluorocyclopropyl)-1,2,4-oxadiazol-3-yl)-2-methylphenyl)-7-morpholinoimidazo[1,2-a]pyridine-3-carboxamide], with 0.1 to 1 µM.
The same measure, in the same setting: then `COC(=O)N1CC(c2nc(-c3cc(F)c(C)c(NC(=O)c4cnc5cc(OC)ccn45)c3)no2)C1` [Compound C029, methyl 3-(3-(3-fluoro-5-(7-methoxyimidazo[1,2-a]pyridine-3-carboxamido)-4-methylphenyl)-1,2,4-oxadiazol-5-yl)azetidine-1-carboxylate], with at most 0.1 µM; and `CC(=O)N1CCN(c2ccc3ncc(C(=O)Nc4cc(-c5noc([C@H]6C[C@@H]6F)n5)cc(F)c4C)n3c2)CC1` (racemic) [Compound C039, 6-(4-acetylpiperazin-1-yl)-N-(3-fluoro-5-(5-((1R,2S)-2-fluorocyclopropyl)-1,2,4-oxadiazol-3-yl)-2-methylphenyl)imidazo[1,2-a]pyridine-3-carboxamide], with at most 0.1 µM.
With `COCCOC(=O)N1CC(c2nc(-c3cc(F)c(C)c(NC(=O)c4cnc5ccccn45)c3)no2)C1` [Compound C042, 2-methoxyethyl 3-(3-(3-fluoro-5-(imidazo[1,2-a]pyridine-3-carboxamido)-4-methylphenyl)-1,2,4-oxadiazol-5-yl)azetidine-1-carboxylate], under “class ranges”, the concentration for half-maximal inhibition (IC50) was in the range of 0.1 to 1 µM.
On the same count and under the same terms, the value for `Cc1c(F)cc(-c2noc(C3CC(F)(F)C3)n2)cc1NC(=O)c1cnc2ccc(N3CCNCC3)cn12` [Compound C025, N-(5-(5-(3,3-difluorocyclobutyl)-1,2,4-oxadiazol-3-yl)-3-fluoro-2-methylphenyl)-6-(piperazin-1-yl)imidazo[1,2-a]pyridine-3-carboxamide] was 0.1 to 1 µM.
Consider `COC(=O)N1CCC[C@H](c2nc(-c3cc(F)c(C)c(NC(=O)c4cnc5ccccn45)c3F)no2)C1` [Compound C056, methyl (S)-3-(3-(2,5-difluoro-3-(imidazo[1,2-a]pyridine-3-carboxamido)-4-methylphenyl)-1,2,4-oxadiazol-5-yl)piperidine-1-carboxylate], for which the half-inhibitory concentration (IC50) (class ranges) was 0.1 to 1 µM.
Still for that read-out and setting: then `Cc1c(F)cc(-c2noc([C@H]3C[C@@H]3F)n2)cc1NC(=O)c1cnc2ccccn12` (racemic) [Compound C002, N-(3-fluoro-5-(5-((1R,2S)-2-fluorocyclopropyl)-1,2,4-oxadiazol-3-yl)-2-methylphenyl)imidazo[1,2-a]pyridine-3-carboxamide], with 1 to 20 µM.
For `COC(=O)N1CC(c2nc(-c3cc(F)c(C)c(NC(=O)c4cnc5cc(N6CCNCC6)ccn45)c3)no2)C1` [Compound C030, methyl 3-(3-(3-fluoro-4-methyl-5-(7-(piperazin-1-yl)imidazo[1,2-a]pyridine-3-carboxamido)phenyl)-1,2,4-oxadiazol-5-yl)azetidine-1-carboxylate], the 50% inhibitory concentration (IC50) (class ranges) is 0.1 to 1 µM.
As for `Cc1c(F)cc(-c2noc(C3CC(F)(F)C3)n2)cc1NC(=O)c1cnn2ccccc12` [Compound C004, N-(5-(5-(3,3-difluorocyclobutyl)-1,2,4-oxadiazol-3-yl)-3-fluoro-2-methylphenyl)pyrazolo[1,5-a]pyridine-3-carboxamide], the concentration for half-maximal inhibition (IC50) (class ranges) fell in the range of 1 to 20 µM.
The same measure, in the same setting: the value for `Cc1c(F)cc(-c2noc(C3CN(C(=O)OCCN)C3)n2)cc1NC(=O)c1cnc2ccccn12` [Compound C041, 2-aminoethyl 3-(3-(3-fluoro-5-(imidazo[1,2-a]pyridine-3-carboxamido)-4-methylphenyl)-1,2,4-oxadiazol-5-yl)azetidine-1-carboxylate] was at most 0.1 µM; that for `Cc1c(F)cc(-c2noc([C@H]3C[C@H]3F)n2)cc1NC(=O)c1cnn2ccccc12` (racemic) [Compound C005] was 0.1 to 1 µM.
On the same count and under the same terms, the value for `Cc1c(F)cc(-c2noc([C@H]3C[C@@H]3F)n2)cc1NC(=O)c1cnc2ccc(N3CCNCC3)cn12` (racemic) [Compound C026, N-(3-fluoro-5-(5-((1R,2S)-2-fluorocyclopropyl)-1,2,4-oxadiazol-3-yl)-2-methylphenyl)-6-(piperazin-1-yl)imidazo[1,2-a]pyridine-3-carboxamide] was 0.1 to 1 µM; that for `COC(=O)N1CC(c2nnc(-c3cc(F)c(C)c(NC(=O)c4cnc5ccccn45)c3)o2)C1` [Compound C044, methyl 3-(5-(3-fluoro-5-(imidazo[1,2-a]pyridine-3-carboxamido)-4-methylphenyl)-1,3,4-oxadiazol-2-yl)azetidine-1-carboxylate] was 1 to 20 µM.
On the same count and under the same terms, the value for `COC(=O)N1CC(c2nc(-c3cc(F)c(C)c(NC(=O)c4cnc5ccc(C)cn45)c3)no2)C1` [Compound C021, methyl 3-(3-(3-fluoro-4-methyl-5-(6-methylimidazo[1,2-a]pyridine-3-carboxamido)phenyl)-1,2,4-oxadiazol-5-yl)azetidine-1-carboxylate] was 0.1 to 1 µM; that for `Cc1c(F)cc(-c2noc(C3CN(C(=O)OC4CC4)C3)n2)cc1NC(=O)c1cnc2ccccn12` [Compound C031, cyclopropyl 3-(3-(3-fluoro-5-(imidazo[1,2-a]pyridine-3-carboxamido)-4-methylphenyl)-1,2,4-oxadiazol-5-yl)azetidine-1-carboxylate] was 1 to 20 µM; that for `CCOC(=O)N1CC(c2nc(-c3cc(F)c(C)c(NC(=O)c4cnc5ccccn45)c3)no2)C1` [Compound C023, ethyl 3-(3-(3-fluoro-5-(imidazo[1,2-a]pyridine-3-carboxamido)-4-methylphenyl)-1,2,4-oxadiazol-5-yl)azetidine-1-carboxylate] was 0.1 to 1 µM.
On to `COC(=O)N1CC(c2ncc(-c3cc(F)c(C)c(NC(=O)c4cnc5ccccn45)c3)o2)C1` [Compound C046, methyl 3-(5-(3-fluoro-5-(imidazo[1,2-a]pyridine-3-carboxamido)-4-methylphenyl)oxazol-2-yl)azetidine-1-carboxylate], for which, under “class ranges”, the IC50 is 1 to 20 µM.
Take `COC(=O)N1CC(c2nc(-c3cc(F)c(C)c(NC(=O)c4cnc5ccc(OC)cn45)c3)no2)C1` [Compound C027, methyl 3-(3-(3-fluoro-5-(6-methoxyimidazo[1,2-a]pyridine-3-carboxamido)-4-methylphenyl)-1,2,4-oxadiazol-5-yl)azetidine-1-carboxylate]: the half-inhibitory concentration (IC50) (class ranges) was 0.1 to 1 µM.
Still for that read-out and setting: then `COC(=O)N1CC(c2nc(-c3cc(F)c(C)c(NC(=O)c4cnc5ccccn45)c3)co2)C1` [Compound C045, methyl 3-(4-(3-fluoro-5-(imidazo[1,2-a]pyridine-3-carboxamido)-4-methylphenyl)oxazol-2-yl)azetidine-1-carboxylate], with 0.1 to 1 µM.
`CC(=O)N1CCN(c2ccc3ncc(C(=O)Nc4cc(-c5noc(C6CC(F)(F)C6)n5)cc(F)c4C)n3c2)CC1` [Compound C038, 6-(4-acetylpiperazin-1-yl)-N-(5-(5-(3,3-difluorocyclobutyl)-1,2,4-oxadiazol-3-yl)-3-fluoro-2-methylphenyl)imidazo[1,2-a]pyridine-3-carboxamide]: the IC50 (class ranges) was at most 0.1 µM.
Still for that read-out and setting: the value for `Cc1c(F)cc(-c2noc(C3CC(F)(F)C3)n2)cc1NC(=O)c1cnc2ccc(N3CCN(C)CC3)cn12` [Compound C033, N-(5-(5-(3,3-difluorocyclobutyl)-1,2,4-oxadiazol-3-yl)-3-fluoro-2-methylphenyl)-6-(4-methylpiperazin-1-yl)imidazo[1,2-a]pyridine-3-carboxamide] was 0.1 to 1 µM.
Consider `COC(=O)N1CC(c2nc(-c3ccc(C)c(NC(=O)c4cnc5ccccn45)c3)no2)C1` [methyl 3-(3-(3-(imidazo[1,2-a]pyridine-3-carboxamido)-4-methylphenyl)-1,2,4-oxadiazol-5-yl)azetidine-1-carboxylate, reference compound], for which the IC50 (comparison of prior art compounds (WO 2013/033167) with example 3 (C003)) was found to be 0.172 µM.
Regarding `COC(=O)N1CC(c2nc(-c3cc(F)c(C)c(NC(=O)c4cnc5ccc(Cl)cn45)c3)no2)C1` [Compound C012, methyl 3-(3-(3-(6-chloroimidazo[1,2-a]pyridine-3-carboxamido)-5-fluoro-4-methylphenyl)-1,2,4-oxadiazol-5-yl)azetidine-1-carboxylate], where the note is “class ranges”, the IC50 was in the range of 0.1 to 1 µM.
On the same count and under the same terms, then `COC(=O)N1CC(c2nc(-c3cc(F)c(C)c(NC(=O)c4cnc5ccc(F)cn45)c3)no2)C1` [Compound C019, methyl 3-(3-(3-fluoro-5-(6-fluoroimidazo[1,2-a]pyridine-3-carboxamido)-4-methylphenyl)-1,2,4-oxadiazol-5-yl)azetidine-1-carboxylate], with 0.1 to 1 µM; and `COC(=O)N1CC(c2nc(-c3cc(F)c(C)c(NC(=O)c4cnc5ccc(C(N)=O)cn45)c3)no2)C1` [Compound C040, methyl 3-(3-(3-(6-carbamoylimidazo[1,2-a]pyridine-3-carboxamido)-5-fluoro-4-methylphenyl)-1,2,4-oxadiazol-5-yl)azetidine-1-carboxylate], with at most 0.1 µM.
